Laboratory results published in patent US20250140406A1, “CLASSIFYING TUMORS AND PREDICTING RESPONSIVENESS” (Oncocyte Corporation, priority 2022, published 2025).

Tests used:
[1] = system: cancer cell lines, DetermaIO classes; test: Association of PRISM compound sensitivity with DetermaIO (DTIO) cell line classes; assay type: cell-based
[2] = system: cancer cell lines classified IM, MSL, M; test: PRISM screen compound sensitivity correlated with IM, MSL and M subtype of cell lines (101 gene signature); assay type: cell-based; conditions: for IM Corr test: correlation of PRISM compound sensitivity with IM subtype correlation; for M Corr test: correlation of PRISM compound sensitivity with M subtype correlation; for MSL Corr test: correlation of PRISM compound sensitivity with MSL subtype correlation; for TNBCType train: 101 gene signature
[3] = correlation of PRISM compound sensitivity with DTIO (DetermaIO); test cell set (188 cell lines)
[4] = correlation of PRISM compound sensitivity with DTIO (DetermaIO); training cell set (371 cell lines)
[5] = correlation of PRISM compound sensitivity with DTIO; test cell set (188 cell lines)
[6] = correlation of PRISM compound sensitivity with DTIO; training cell set (371 cell lines)
[7] = correlation of PRISM compound sensitivity with DTIO; test cell set
[8] = correlation of PRISM compound sensitivity with DTIO; training cell set

Structure (SMILES) | IM Corr test ([2]; test cell set (188 cell lines)) | M Corr test ([2]; test cell set (188 cell lines)) | MSL Corr test ([2]; test cell set (188 cell lines)) | DTIO Corr test [1, 7] | DTIO Corr train [1, 8] | further results
Cc1cc(OCCCS(C)(=O)=O)cc(C)c1-c1cccc(COc2ccc3c(c2)OC[C@H]3CC(=O)O)c1 [TAK-875] | 0.00946 | −0.00346 | −0.00217 |  |  | DTIO Corr test [1, 3]: −0.03291; DTIO Corr train [1, 4]: 0.03182; TNBCType train ([2]; subtype (IM, MSL or M) assigned to the compound by negative correlation of PRISM sensitivity with subtype, training cell set (371 cell lines)): MSL
CCN1/C(=C/C(C)=O)Sc2ccc(OC)cc21 [TG-003] | −0.1049 | 0.03396 | −0.1032 |  |  | DTIO Corr test [1, 5]: −0.05387; DTIO Corr train [1, 6]: −0.04255; TNBCType train ([2]; subtype (IM, MSL or M) the PRISM compound sensitivity is associated with, training cell set (371 cell lines)): MSL
Cc1cc(-c2cc(O)ccc2Cl)cc2nnc(Nc3ccc(OCCN4CCCC4)cc3)nc12 [TG-100572] | 0.01392 | −0.05751 | −0.04088 | 0.03221 | 0.09048 | TNBCType train ([2]; subtype (IM, MSL or M) with which compound sensitivity is negatively correlated, training cell set (371 cell lines)): MSL
Nc1cccc(-c2cc3c(Oc4cccc(O)c4)ncnc3[nH]2)c1 [TWS-119] | −0.02666 | 0.00573 | 0.1335 |  |  | DTIO Corr test [1, 5]: −0.03964; DTIO Corr train [1, 6]: −0.1606
CC(C)C(=O)c1ccc(O)c(O)c1 [U-0521] | −0.0012 | 0.02749 | 0.06256 | −0.01537 | −0.1115 | 
c1ccc(C(NCc2cccnc2)(c2ccccc2)c2ccccc2)cc1 [UCL-2077] |  |  |  | −0.07511 | −0.2006 | IM Corr test ([2]; test cell set): −0.1051; M Corr test ([2]; test cell set): 0.08781; MSL Corr test ([2]; test cell set): 0.1128
CCCN(CCC)[C@@H]1CCc2c(OC)cccc2[C@@H]1C [UH-232-(+)] | −0.1006 | 0.08495 | 0.1169 |  |  | DTIO Corr test [1, 3]: −0.1146; DTIO Corr train [1, 4]: −0.08225
CN(C)CCN1C(=O)c2cccc3cc(NC(N)=O)cc(c23)C1=O [UNBS-5162] |  |  |  | 0.09148 | 0.09844 | DTIO Corr test ([1]; correlation of compound sensitivity with DetermaIO (DTIO); test set): 0.09148; DTIO Corr train ([1]; correlation of compound sensitivity with DetermaIO (DTIO); training set): 0.09844; IM Corr test ([2]; test cell set): 0.1623; M Corr test ([2]; test cell set): −0.2029; MSL Corr test ([2]; test cell set): −0.03433
COc1cc2c(NC3CCN(CC4CCCCC4)CC3)nc(N3CCCN(C(C)C)CC3)nc2cc1OCCCN1CCCCC1 [UNC0631] | 0.2168 | −0.3256 | −0.09072 | 0.163 | 0.1055 | DTIO Corr test ([1]; correlation of compound sensitivity with DetermaIO (DTIO), test set): 0.163; DTIO Corr train ([1]; correlation of compound sensitivity with DetermaIO (DTIO), training set): 0.1055
COc1cc2c(NC3CCN(C(C)C)CC3)nc(C3CCCCC3)nc2cc1OCCCN1CCCC1 [UNC0638] | −0.1264 | 0.1332 | 0.1697 |  |  | DTIO Corr test [1, 3]: −0.08839; DTIO Corr train [1, 4]: −0.07586
COc1ccc(CN2C(=O)C(=O)c3cc(OC(F)(F)F)ccc32)cc1 [VU0238429] |  |  |  | −0.02333 | −0.07773 | IM Corr test ([2]; test cell set): 0.04415; M Corr test ([2]; test cell set): −0.1868; MSL Corr test ([2]; test cell set): −0.1511
Cc1cc(C)c(N(Cc2ccccc2)S(=O)(=O)c2ccc(OCCNC(=O)c3cc4ccccc4o3)cc2)c(C(=O)NO)c1 [WAY-170523] |  |  |  | 0.02955 | 0.0516 | IM Corr test ([2]; test cell set): −0.0044; M Corr test ([2]; test cell set): −0.01887; MSL Corr test ([2]; test cell set): −0.04718; TNBCType train ([2]; subtype (IM, MSL or M) with which PRISM compound sensitivity is negatively correlated, training cell set): MSL
COc1cc2ncnc(Nc3ccc(O)c(Br)c3)c2cc1OC [WHI-P154] | −0.227 | 0.2466 | 0.2152 | −0.06543 | −0.1245 | 
C=CC(=O)Nc1cccc(Sc2nc(Nc3ccc(N4CCN(C)CC4)cc3)ncc2Cl)c1 [WZ8040] | −0.07504 | 0.1805 | 0.2895 |  |  | DTIO Corr test [1, 3]: 0.0423; DTIO Corr train [1, 4]: −0.1387
